Measured values as given in patent US20260183276A1, “miRNA DYSREGULATION CORRECTION AS A STRATEGY TO TREAT HUNTINGTON'S DISEASE” (The Chinese University of Hong Kong, priority 2022, published 2026).
“Also recorded” adds a separate entry of the source.

What was measured:
[1] = system: EGFPCAG78-expressing SK-N-MC cells; assay: LDH cell death assay, EGFPCAG78-expressing SK-N-MC cells; assay type: cell-based
Procedure: (§1) SK-N-MC cells (ATCC) were cultured in DMEM (GE Healthcare BioSciences) supplemented with 10% fetal bovine serum and 1% penicillin-streptomycin. Cells were maintained in a 37° C. humidified cell culture incubator supplemented with 5% CO2. Plasmid DNA and siRNA/synthetic miRNA transfection was performed using Lipofectamine 2000 (Thermo Fisher Scientific) and Lipofectamine RNAiMAX (Thermo Fisher Scientific), respectively.
(§2) The LDH assay on SK-N-MC cells were performed according to manufacturer's instructions (CytoTox 96 Non-Radioactive Cytotoxicity Assay Kit, Promega).

[2] = system: PAPD5-overexpressing cells; assay: LDH cell death assay, PAPD5-overexpressing cells; assay type: cell-based
Procedure: as §1, §2

[3] = system: EGFP-Htt1-550CAG89-expressing SK-N-MC cells; assay: LDH cell death assay, EGFP-Htt1-550CAG89-expressing SK-N-MC cells; assay type: cell-based
Procedure: as §1, §2

[4] = system: TAK1-MKK4-JNK pro-apoptotic signaling in PAPD5-overexpressing cells; assay: Western blotting of TAK1-MKK4-JNK caspase cascade, PAPD5-overexpressing cells; assay type: cell-based
Procedure: as §1
(§3) Proteins were extracted from SK-N-MC cells or mouse primary cortical neurons using SDS sample buffer. For protein extraction from mice, half of the brain was homogenized in protein lysis buffer (50 mM Tris-HCl, pH 7.6, 150 mM NaCl, 10% NP40, 5% sodium deoxycholate). All protein samples were boiled at 99° C. for 10 minutes, prior to Western blotting. Primary antibodies used were anti-PAPD5 (PA5-46747, 1:1,000) from Invitrogen; anti-p-TAK1 (4536, 1:1,000), anti-t-TAK1 (4505, 1:2,000), anti-p-MKK4 (9156, 1:1,000), anti-t-MKK4 (9152, 1:2,000), anti-p-MKK7 (4171, 1:1,000), anti-t-MKK7 (4172, 1:2,000), anti-p-JNK (9251, 1:2,000), anti-t-JNK (9252, 1:2,000), anti-TAB1 (3226, 1:2,000), anti-TAB2 (3745, 1:2,000), anti-cleaved caspase 3 (9664, 1:500) and anti-myc (2276, 1:2,000) from Cell Signaling Technology; antipolyQ (P1874, 1:1,000) and anti-HA (H3663, 1:2,000) from Sigma-Aldrich; anti-YY1 (ab109237, 1:2000) and anti-β-tubulin (ab6046, 1:2,000) from Abcam, and anti-GFP (JL-8, 1:4,000) from Clontech. Secondary antibodies used were goat anti-rabbit (11035-045, 1:5,000) and goat anti-mouse (115-035-062, 1:5,000) from Jackson ImmunoResearch.

[5] = system: TAK1-MKK4-JNK pro-apoptotic signaling in EGFPCAG78-expressing cells; assay: Western blotting of TAK1-MKK4-JNK caspase cascade, EGFPCAG78-expressing cells; assay type: cell-based; details: for TAB2 expression / TAB1 expression / TAK1-triggered cell death: EGFPCAG78-transfected cells; for EGFPCAG78-induced TAK1 functional deregulation: FIG. 9B; for TAK1-triggered cell death: FIG. 9A
Procedure: as §1, §3

[6] = system: TAK1-MKK4-JNK pro-apoptotic signaling in EGFP-Htt1-550CAG89-expressing cells; assay: Western blotting of TAK1-MKK4-JNK caspase cascade, EGFP-Htt1-550CAG89-expressing SK-N-MC cells; assay type: cell-based
Procedure: as §1, §3

[7] = system: EGFP-Htt1-550CAG89-expressing mouse primary cortical neurons; assay: Immunocytochemistry of synaptic markers and neurites, EGFP-Htt1-550CAG89-expressing primary cortical neurons; assay type: cell-based; details: 400 nM BCH001, 72 hours
Procedure: E16-embryos of C57BL6J wildtype mice were sacrificed to obtain the mouse primary cortical neurons as previously described (Peng et al., 2021). In brief, cortical lobes were dissected out in ice-cold PBS-glucose. Meninges were removed and cortices were digested in trypsin solution. Primary cortical neurons were cultured on poly-[…]-coated (0.05 mg/ml) glass coverslips in 24-well plates (50,000 cells per well) and maintained in a 37° C. humidified cell culture incubator supplemented with 5% CO2. Prior to transfection and drug treatment, neurons were cultured for 5 days. Mature primary neurons were transfected with DNA constructs together with Lipofectamine LTX and Plus Reagent (Thermo Fisher Scientific). Following the manufacturer's protocol, at 4 hours post-transfection culture medium was refreshed and 400 nM of BCH001 was added to the medium. Neurons were further incubated for 72 hours to allow recovery and ectopic expression. Neurons were fixed with 4% paraformaldehyde for 10 minutes, followed by permeabilization (0.2% Triton X-100) for another 10 minutes and blocking (1% BSA) for 1 hour at room temperature. Primary antibody incubation was performed in 1% BSA overnight at 4° C. After washing steps, neurons were incubated with secondary antibodies in 1% BSA in dark for 1 hour at room temperature. Samples were counterstained with 1 μg/ml 4,6-diamidino-2-phenylindole (DAPI) solution for nuclei visualization and then washed with PBS, followed by mounting and examined under a confocal microscope (Leica TCS SP8 high speed imaging system). To examine the neurite arborization and quantify the synaptic markers, primary neurons were stained with MAP2 (1:10,000; ab5392, Abcam) and Synapsin I (1:200; ab8, Abcam), Bassoon (1:200; ab110426, Abcam) or Homer1 (1:200; ab97593, Abcam) antibodies. The z stacked maximal projected images were used for statistical analyses using Photoshop 2020 (Adobe Systems). Ten EGFP-positive neurons per replica were used for the statistical analysis.

[8] = system: JNK phosphorylation and caspase 3 cleavage in EGFP-Htt1-550CAG89-expressing neurons; assay: Western blotting, EGFP-Htt1-550CAG89-expressing primary cortical neurons; assay type: cell-based, mouse
Procedure: E16-embryos of C57BL6J wildtype mice were sacrificed to obtain the mouse primary cortical neurons as previously described (Peng et al., 2021). In brief, cortical lobes were dissected out in ice-cold PBS-glucose. Meninges were removed and cortices were digested in trypsin solution. Primary cortical neurons were cultured on poly-[…]-coated (0.05 mg/ml) glass coverslips in 24-well plates (50,000 cells per well) and maintained in a 37° C. humidified cell culture incubator supplemented with 5% CO2. Prior to transfection and drug treatment, neurons were cultured for 5 days. Mature primary neurons were transfected with DNA constructs together with Lipofectamine LTX and Plus Reagent (Thermo Fisher Scientific). Following the manufacturer's protocol, at 4 hours post-transfection culture medium was refreshed and 400 nM of BCH001 was added to the medium. Neurons were further incubated for 72 hours to allow recovery and ectopic expression. Proteins were extracted from SK-N-MC cells or mouse primary cortical neurons using SDS sample buffer. For protein extraction from mice, half of the brain was homogenized in protein lysis buffer (50 mM Tris-HCl, pH 7.6, 150 mM NaCl, 10% NP40, 5% sodium deoxycholate). All protein samples were boiled at 99° C. for 10 minutes, prior to Western blotting. […]

[9] = system: HttQ93-induced retinal neurodegeneration; assay: Pseudopupil assay, HttQ93 Drosophila model of Huntington's Disease; assay type: in vivo; details: 10 uM BCH001, gmr-GAL4 driver
Procedure: Fly lines gmr-Gal4 (Ellis et al., 1993), UAS-DsRedCAG0/100 (Li et al., 2008), UAS-Htt exon1Q93 (Steffan et al., 2001), UAS-flMJDQ27/84 (Warrick et al., 2005), UASCTG60/480 (Garcia-Lopez et al., 2008) and UAS-EGFP-CGG90 (Jin et al., 2003) were described previously. The UAS-PAPD5 dsRNA line (GD19799, GD41096, and GD45261) was obtained from Vienna Drosophila RNAi Center. All flies were maintained in cornmeal culture medium and genetic crosses were set up in a 21.5° C. incubator (LMS, Sevenoaks, Kent, UK).
12 days-post-eclosion (dpe) adult flies were used for the pseudopupil assay as described previously (Wong et al., 2008). Each fly eye was examined using an Olympus CX31 stereomicroscope. The images of ommatidia were captured using a SPOT Insight CCD camera (Diagnostic instruments Inc., Sterling Heights, MI, USA), and all images were processed using the SPOT Advanced software (Version 5.2; Diagnostic instruments Inc., Sterling Heights, MI, USA) and Photoshop 2020 (Adobe Systems). Two hundred ommatidia collected from 20 individual fly eyes were examined for each condition and used for statistical analysis. The average number of rhabdomeres per ommatidia was presented as the indication of ommatidial integrity.

A-beta peptide toxicity = assay: A-beta1-42 peptide transgenic Drosophila model of Alzheimer's Disease; assay type: in vivo; details: A-beta1-42 transgenic Drosophila
[10] = system: telomerase RNA component (TERC); details: cited from earlier work
PAPD5 = PAPD5 (Homo sapiens, UniProt Q8NDF8); details: cited from earlier work
PAPD5, sequence (Q8NDF8 whole entry): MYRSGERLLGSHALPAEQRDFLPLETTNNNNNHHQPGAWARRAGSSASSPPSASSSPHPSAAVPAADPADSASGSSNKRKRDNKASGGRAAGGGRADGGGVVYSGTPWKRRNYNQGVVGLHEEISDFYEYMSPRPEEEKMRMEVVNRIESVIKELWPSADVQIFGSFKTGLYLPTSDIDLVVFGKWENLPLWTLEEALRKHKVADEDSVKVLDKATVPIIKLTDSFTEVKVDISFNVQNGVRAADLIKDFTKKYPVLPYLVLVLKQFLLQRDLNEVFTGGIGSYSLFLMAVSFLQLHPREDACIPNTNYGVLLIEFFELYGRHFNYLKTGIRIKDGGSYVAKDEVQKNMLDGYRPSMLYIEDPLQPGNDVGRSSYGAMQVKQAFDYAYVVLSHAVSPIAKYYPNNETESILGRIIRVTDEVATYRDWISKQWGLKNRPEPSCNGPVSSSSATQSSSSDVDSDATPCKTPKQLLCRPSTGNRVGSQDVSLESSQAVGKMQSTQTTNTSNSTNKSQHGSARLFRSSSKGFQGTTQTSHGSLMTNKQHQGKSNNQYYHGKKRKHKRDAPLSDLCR

## COc1cc(O)c2c(c1)/C=C/C[C@H](O)[C@H](O)C(=O)/C=C\C[C@H](C)OC2=O [5Z-7-oxozeaenol]
[1]
  mutant CAG RNA (EGFPCAG78)-induced cell death: rescued
[2]; PAPD5 overexpression
  PAPD5-induced cell death: suppressed
[3]
  EGFP-Htt1-550CAG89-induced cell death: rescued
[4]
  TAK1/MKK4/JNK phosphorylation: dose-dependent decrease
  caspase 3 cleavage: dose-dependent decrease
[5]; EGFPCAG78-expressing cells
  TAK1-MKK4-JNK pro-apoptotic signaling (phosphorylation of TAK1, MKK4, JNK, caspase 3 cleavage): suppressed
[6]
  caspase 3 cleavage: rescued
  phosphorylation levels of TAK1, MKK4 and JNK: rescued

## CCOC(=O)c1cnc2ccc(OC(F)(F)F)cc2c1Nc1ccccc1C(=O)O [BCH001]
[1]
  mutant CAG RNA (EGFPCAG78)-induced cell death: completely suppressed
[1]; Homo sapiens, FIG. 11, read-out: IC50 of suppression of EGFPCAG78-induced cell death
  IC50: 14.7 nM
[2]; 200 nM BCH001, FIG. 4A
  PAPD5-induced cell death: sufficient to suppress
[2]; 400 nM, FIG. 4A
  cell death induced by the compound: does not induce cell death
[2]; PAPD5 overexpression
  PAPD5-induced cell death: suppressed in a dose-dependent manner
[3]
  EGFP-Htt1-550CAG89-induced cell death: rescued
[4]
  TAK1/MKK4/JNK phosphorylation: suppressed in a dose-dependent manner
  caspase 3 cleavage: suppressed in a dose-dependent manner
[6]
  caspase 3 cleavage: suppressed
  phosphorylation levels of TAK1, MKK4 and JNK: reduced
[7]
  neurites (primary, secondary, tertiary): recovered to their control levels
  puncta number of Bassoon: restoration
  puncta number of Homer1: restoration
  puncta number of Synapsin I: restoration
  synaptic defects: fully rescued
[8]
  JNK phosphorylation: attenuated
  caspase 3 cleavage: attenuated
[9]
  HttQ93-induced retinal neurodegeneration (rhabdomere numbers): marked suppression
A-beta peptide toxicity
  A-beta peptide toxicity (retinal degeneration): capable of suppressing
[10]
  3' adenylation of telomerase RNA component (TERC): reduced
PAPD5
  PAPD5 enzyme activity: specifically target

## COCCCOc1cc2c(cc1OC)-c1cc(=O)c(C(=O)O)cn1[C@H](C(C)C)C2 [RG7834]
A-beta peptide toxicity
  A-beta peptide toxicity (retinal degeneration): capable of suppressing

## miR-7-5p: miRNA (IDT), SEQ ID NO: 15, predicted to target TAB2
[5]
  TAB2 expression: capable of silencing
  EGFPCAG78-induced TAK1 functional deregulation: inhibiting

## miR-10a-5p: miRNA (IDT), SEQ ID NO: 10, predicted to target TAB1 (UACCCUGUAGAUCCGAAUUUGUG; listed as RNA, chemistry not given here)
[5]
  TAB1 expression: able to silence
  TAK1-triggered cell death: inhibit

## miR-22-5p: miRNA (IDT), SEQ ID NO: 14, predicted to target TAB2 (AGUUCUUCAGUGGCAAGCUUUA; listed as RNA, chemistry not given here)
[5]
  TAB2 expression: capable of silencing
  EGFPCAG78-induced TAK1 functional deregulation: inhibiting

## miR-331-3p: miRNA (IDT), SEQ ID NO: 12, predicted to target TAB1 (GCCCCUGGGCCUAUCCUAGAA; listed as RNA, chemistry not given here)
[5]
  TAB1 expression: able to silence
  TAK1-triggered cell death: inhibit

## miR-504: miRNA targeting TAB1, expressed from construct pRI-CMV/GFP-miR-504 (mimic sequence SEQ ID NO: 3) (GACCCTGGTCTGCACTCTATC; listed as DNA, chemistry not fully specified)
[1]
  mutant CAG RNA (EGFPCAG78)-induced cell death: inhibited in a dose-dependent manner
[3]
  EGFP-Htt1-550CAG89-induced cell death: rescued
[5]; EGFPCAG78-expressing cells, miRNA overexpression
  phosphorylation of TAK1 and JNK, and cleavage of caspase 3: suppressed
[5]
  TAB1 expression: most robust gene-silencing effects; also recorded: reduced
[6]
  caspase 3 cleavage: rescued
  phosphorylation levels of TAK1, MKK4 and JNK: rescued
